Consider 33 compounds from the Deep4Chem optical property database.

The nature of this data set: solvent given as SMILES.

Take `C(=C\c1ccccc1/C=C/c1c2ccccc2cc2ccccc12)/c1ccncc1`: the emission maximum (in C1CCOC1) is recorded as 498 nm.
Take `O=C1NC(=O)/C(=C\c2ccccc2O)S1`: the emission maximum was found to be 397 nm (in C1CCCCC1); 418 nm (in C1COCCO1); 428 nm (in CC#N); 424 nm (in CN(C)C=O); 428 nm (in CO); 480 nm (in O). The emission maximum runs as follows: (in OCC(O)CO) 451 nm; (in OCCO) 440 nm.
In the case of `COc1ccc(/C=C/C2=[O+][B-](F)(F)OC(/C=C/c3ccc(OC)cc3)=C2c2ccc(OC)cc2)cc1`, for the setting “in ClCCl”, the emission maximum is on record as 571 nm.
The compound `Cc1nn(-c2ccccc2)c2c1c(=O)oc1ccc(-n3c4ccccc4c4ccccc43)cc12` had an emission maximum (in Cc1ccccc1) of 412 nm.
Take `C(=C\c1cc2ccccc2c2ccccc12)/c1cc2ccccc2c2ccccc12`: the emission maximum (in C1CCOC1) is 416 nm.
Turning to `CO[Si](c1c2ccccc2cc2ccccc12)(c1c2ccccc2cc2ccccc12)c1c2ccccc2cc2ccccc12`, under “in ClC(Cl)Cl”, the emission maximum came out at 439 nm.
On to `Cc1c(-c2ccc(N3c4ccccc4C(C)(C)c4ccccc43)cc2)ncnc1-c1ccc(N2c3ccccc3C(C)(C)c3ccccc32)cc1`, for which the emission maximum is, setting by setting: (in Cc1ccccc1) 477 nm; (in O=P(c1ccccc1)(c1ccccc1)c1ccccc1Oc1ccccc1P(=O)(c1ccccc1)c1ccccc1) 481 nm.
As for `F[B-]1(F)n2c(-c3cccs3)cc(-c3cccs3)c2N=C2C(c3cccs3)=CC(c3cccs3)=[N+]21`, the emission maximum runs as follows: (in C1CCOC1) 763 nm; (in CC#N) 757 nm; (in CS(C)=O) 775 nm; (in Cc1ccccc1) 765 nm; (in ClCCl) 764 nm.
In the case of `Cc1cccc(-c2[nH]c(=O)n3c2-c2ccccc2C3=O)c1O`, the emission maximum turned out to be 480 nm (in CC#N), 496 nm (in CO) and 473 nm (in ClCCl).
Turning to `c1ccc2c(c1)-c1c(ccc3ccccc13)C21c2cc(-c3ccc4ccc5cccc6ccc3c4c56)ccc2-c2ccc(-c3ccc4ccc5cccc6ccc3c4c56)cc21`, the emission maximum (in ClC(Cl)Cl) worked out at 422 nm.
For the setting “in ClCCl”, `CCCCN1C(=O)c2cccc3c(C#CC#Cc4ccc5c6c(cccc46)C(=O)N(CCCC)C5=O)ccc(c23)C1=O` showed an emission maximum of 432 nm.
For the setting “in ClCCl”, `CC(C)[Si](C#Cc1cc2c3c(c1)c(=C1c4ccccc4Sc4ccccc41)c1cc(C#C[Si](C(C)C)(C(C)C)C(C)C)cc4c1N3c1c(cc(C#C[Si](C(C)C)(C(C)C)C(C)C)cc1c4=C1c3ccccc3Sc3ccccc31)c2=C1c2ccccc2Sc2ccccc21)(C(C)C)C(C)C` yielded an emission maximum of 511 nm.
Compound `COc1ccc2c(c1)c(C#N)cc1c(OC)c(OC)c3cc(C#N)c4cc(OC)ccc4c3c12` displayed an emission maximum (in ClC(Cl)Cl) of 496 nm.
On to `N#C/C(=C/Nc1ccc(C#N)cc1)c1nc(-c2ccccc2)cs1`, for which the emission maximum amounted to 434 nm (in CCO), 436 nm (in CN(C)C=O), 438 nm (in Cc1ccccc1) and 437 nm (in ClCCl).
`Cc1ccc2c(c1)B(c1c(C(C)C)cc(C(C)C)cc1C(C)C)c1cc(C)cc3c1N2c1ccc(C)cc1B3c1c(C(C)C)cc(C(C)C)cc1C(C)C`: the emission maximum (in ClCCl) is recorded as 482 nm.
As for `COc1ccc(/C=C2\OC(=O)c3cc(N)ccc32)cc1`, the emission maximum is, setting by setting: (in CC#N) 450.25 nm; (in CC(C)=O) 446.03 nm; (in CC(C)CO) 474.83 nm; (in CC(C)O) 481.23 nm; (in CCCO) 482.63 nm; (in CCO) 485.44 nm. The emission maximum runs as follows: (in CCOC(C)=O) 445.04 nm; (in CCOCC) 443.26 nm; (in CO) 486.14 nm.
As for `C#CCNC1=C2C=C(c3cc4n(c3)[B-](F)(F)[N+]3=CC=CC3=C4c3c(C)cc(C)cc3C)C(C)=[N+]2[B-](F)(F)n2c(C)ccc21`, the emission maximum is, setting by setting: (in C1CCCCC1) 633 nm; (in CCOC(C)=O) 690 nm.
On to `CCc1ccc(/C=C/c2ccc(-c3nnc(-c4ccc(-c5cc6ccccc6s5)cc4)o3)cc2)cc1`, for which the emission maximum turned out to be 421 nm (in CC#N); 420 nm (in CC(C)=O); 389 nm (in CCCCCCCC); 420 nm (in CCCCCCCCCCO); 421 nm (in CCCCCCCCO); 421 nm (in CCCCCO). Also, the emission maximum reads like this: (in CCCO) 422 nm; (in CN(C)C=O) 429 nm; (in CO) 426 nm; (in CS(C)=O) 433 nm.
As to `Cc1c(COC(=O)c2ccccc2Cl)n2c(OCC(=O)c3ccccc3Cl)c(C)c(=O)n2c1=O`, the emission maximum (in CCO) came to 459 nm.
`CCCCN1C(=O)c2cccc3cccc(c23)C1=O` gave an emission maximum (in Cc1ccccc1) of 392 nm.
On to `c1ccc2cc(-n3c4ccccc4c4ccccc43)ccc2c1`, for which the emission maximum is 362 nm (in C1CCCCC1); 374 nm (in C1CCOC1); 388 nm (in CC#N); 379 nm (in CCO); 372 nm (in CCOC(C)=O); 368 nm (in CCOCC). The compound also yielded an emission maximum (in CO) of 382 nm, an emission maximum (in Cc1ccccc1) of 364 nm and an emission maximum (in ClC(Cl)Cl) of 376 nm.
As for `CN(C)c1ccc(C(=O)Nc2ccc([N+](=O)[O-])cc2)cc1`, the emission maximum (in C1CCCCC1) is recorded as 360 nm, the emission maximum (in C1CCOC1) is recorded as 400 nm, the emission maximum (in CC#N) was 430 nm and the emission maximum (in CCOCC) was 536 nm.
`O=C1OC(=O)C2=C1[Se][C@]13C2=C[C@H](c2ccccc21)c1ccccc13`: the emission maximum (in ClCCl) worked out at 517 nm.
Compound `CCCN1c2ccccc2Sc2cc(/C=C\c3cc(=O)oc4cc(C)c(Cl)cc34)ccc21` came in with an emission maximum (in ClC(Cl)Cl) of 648 nm.
The compound `c1ccc(-c2nc(-c3cccs3)[nH]c2-c2ccccc2)cc1` returned an emission maximum (in CC#N) of 391 nm.
In the case of `CN(C)c1ccc(C#Cc2ccc(-c3nc(C#N)c(C#N)n3C)cc2)cc1`, the emission maximum came to 406 nm (in C1CCCCC1), 514 nm (in CC#N), 489 nm (in CO) and 479 nm (in ClC(Cl)Cl).
Regarding `Cc1cc(=O)oc2cc(O)ccc12`, the emission maximum (in CCO) turned out to be 380 nm.
With `O=c1c2cc(Cl)ccc2[nH]c2ccc(COO)cc12`, the emission maximum (in O) is 425 nm.
As for `N#Cc1c(C#N)c2cc(F)ccc2c2ccc(F)cc12`, the emission maximum (in ClC(Cl)Cl) is 374 nm.
Regarding `Cc1ccc(C2=C3C=CC(Cl)=[N+]3[B-](F)(F)n3c(Cl)ccc32)cc1`, the emission maximum is, setting by setting: (in C1CCCCC1) 525 nm; (in C1CCOC1) 523 nm; (in CC#N) 520 nm; (in CCOC(C)=O) 521 nm; (in CO) 519 nm; (in Cc1ccccc1) 529 nm. Where the note is “in ClC(Cl)Cl”, the emission maximum is recorded as 526 nm.
As to `F[B-]1(F)n2c(ccc2-c2cccs2)C(c2ccc(Br)cc2)=C2C=CC(c3cccs3)=[N+]21`, the emission maximum (in ClC(Cl)Cl) is 643 nm.
In the case of `c1ccc(N2N=C(c3ccc4ccc5cccc6ccc3c4c56)CC2c2ccc3ccc4cccc5ccc2c3c45)cc1` (stereo not drawn), where the note is “in ClCCl”, the emission maximum turned out to be 508 nm.
Where the note is “in C1CCOC1”, `[O-]c1ccccc1/C=N/c1ccccc1/N=C/c1ccccc1[O-]` gave an emission maximum of 490 nm.
